Test results from patent US20060110456A1, “Method for biocidal and/or biostatic treatment and compositions therefor” (NATIONAL UNIVERSITY OF SINGAPORE, priority 2004, published 2006).

What was measured:
[1] = test system: Balanus amphitrite cyprids; conditions: reported value of commercially available biocide (Willemsen et al., 1998); cited from earlier work
[2] = test system: marine bacteria (26 strains); test: Disk inhibition assay; type: cell-based, marine bacteria isolated from Singapore fouling communities; conditions: for zone of inhibition at 5 µg/disc: 5 μg per disc; for zone of inhibition at 30 µg/disc: 30 μg per disc
Method: Preparation of Drugs onto Disks for Assay
The non-antibiotic pharmaceuticals of Table 1 were prepared in the following way. A tablet with a known amount of active ingredient (as stated in the product information) was ground in a mortar and pestle and suspended in sterile deionized water to a concentration of 2 mg ml^−1. These samples were sonicated for at least 1 min. […] The two halves of the capsule were separated and the powder released straight into a bottle and suitable amount of water added to make a concentration of 2 mg ml^−1.
As a comparison to the pharmaceuticals, to determine the susceptibility of the bacterial isolates to conventional antibiotics, commercially available antibiotic discs were used. Antibiotic discs (Oxoid® CT series) containing Ampicillin [Amp] (2 and 10 μg), Erythromycin [Ery] (5 and 15 μg), Streptomycin [Str] (10 and 25 μg) and Tetracycline [Tet] (5 and 30 μg) were placed on lawns of the bacterial strains inoculated as described below.
Sterile swabs dipped into the cultures were used to inoculate Marine Agar plates with a bacterial lawn by smearing the culture over the surface. After inoculating the plates, discs with antibiotics, pharmaceuticals or control blanks were placed on each plate. Each concentration of antibiotic or pharmaceutical was tested with three replicates on three separate occasions. After the disks were placed on the agar surface, plates were incubated overnight in the dark at 30° C. After incubation, plates were examined for zones of inhibition or clearing around control and treated disks. The diameter of any zone of clearing or inhibition was measured using Vernier calipers.
The assay was repeated three times with three replicates for each concentration used, each time.

CCCCCCCCn1sc(Cl)c(Cl)c1=O [Sea Nine]
ED50 [1]: 0.33 ppm

CN(C)[C@@H]1C(O)=C(C(N)=O)C(=O)[C@@]2(O)C(O)=C3C(=O)c4c(O)cccc4[C@@](C)(O)[C@H]3C[C@@H]12 [Tet, tetracycline]
zone of inhibition at 5 µg/disc ([2]; strain 1 (Rhodovulum)): < 6 mm | zone of inhibition at 30 µg/disc ([2]; strain 1 (Rhodovulum)): < 6 mm | zone of inhibition at 5 µg/disc ([2]; strain 2 (Erythrobacter)): < 6 mm | zone of inhibition at 30 µg/disc ([2]; strain 2 (Erythrobacter)): < 6 mm | zone of inhibition at 5 µg/disc ([2]; strain 3 (Erythrobacter)): < 6 mm | zone of inhibition at 30 µg/disc ([2]; strain 3 (Erythrobacter)): < 6 mm | zone of inhibition at 5 µg/disc ([2]; strain 4 (Bacillus)): 10 to 19 mm | zone of inhibition at 30 µg/disc ([2]; strain 4 (Bacillus)): 10 to 19 mm | zone of inhibition at 5 µg/disc ([2]; strain 6 (Vibrio)): < 6 mm | zone of inhibition at 30 µg/disc ([2]; strain 6 (Vibrio)): 6 to 9 mm | zone of inhibition at 5 µg/disc ([2]; strain 7 (Vibrio)): < 6 mm | zone of inhibition at 30 µg/disc ([2]; strain 7 (Vibrio)): 6 to 9 mm | zone of inhibition at 5 µg/disc ([2]; strain 8 (Bacillus)): 6 to 9 mm | zone of inhibition at 30 µg/disc ([2]; strain 8 (Bacillus)): 10 to 19 mm | zone of inhibition at 5 µg/disc ([2]; strain 9 (Bacillus)): 10 to 19 mm | zone of inhibition at 30 µg/disc ([2]; strain 9 (Bacillus)): 10 to 19 mm | zone of inhibition at 5 µg/disc ([2]; strain 10 (Halobacillus)): 30 to 39 mm | zone of inhibition at 30 µg/disc ([2]; strain 10 (Halobacillus)): 10 to 19 mm | zone of inhibition at 5 µg/disc ([2]; strain 11 (Pseudomonas)): < 6 mm | zone of inhibition at 30 µg/disc ([2]; strain 11 (Pseudomonas)): < 6 mm | zone of inhibition at 5 µg/disc ([2]; strain 12 (Gordonia)): < 6 mm | zone of inhibition at 30 µg/disc ([2]; strain 12 (Gordonia)): 30 to 39 mm | zone of inhibition at 5 µg/disc ([2]; strain 13 (Bacillus)): 6 to 9 mm | zone of inhibition at 30 µg/disc ([2]; strain 13 (Bacillus)): 10 to 19 mm | zone of inhibition at 5 µg/disc ([2]; strain 14 (Vibrio)): < 6 mm | zone of inhibition at 30 µg/disc ([2]; strain 14 (Vibrio)): 10 to 19 mm | zone of inhibition at 5 µg/disc ([2]; strain 16 (Pseudoalteromonas)): < 6 mm | zone of inhibition at 30 µg/disc ([2]; strain 16 (Pseudoalteromonas)): < 6 mm | zone of inhibition at 5 µg/disc ([2]; strain 17 (Gordonia)): < 6 mm | zone of inhibition at 30 µg/disc ([2]; strain 17 (Gordonia)): < 6 mm | zone of inhibition at 5 µg/disc ([2]; strain 18 (Microbacterium)): < 6 mm | zone of inhibition at 30 µg/disc ([2]; strain 18 (Microbacterium)): 6 to 9 mm | zone of inhibition at 5 µg/disc ([2]; strain 19 (Erythrobacter)): < 6 mm | zone of inhibition at 30 µg/disc ([2]; strain 19 (Erythrobacter)): < 6 mm | zone of inhibition at 5 µg/disc ([2]; strain 20): < 6 mm | zone of inhibition at 30 µg/disc ([2]; strain 20): 10 to 19 mm | zone of inhibition at 5 µg/disc ([2]; strain 21): < 6 mm | zone of inhibition at 30 µg/disc ([2]; strain 21): 10 to 19 mm | zone of inhibition at 5 µg/disc ([2]; strain 22): 6 to 9 mm | zone of inhibition at 30 µg/disc ([2]; strain 22): 10 to 19 mm | zone of inhibition at 5 µg/disc ([2]; strain 24): < 6 mm | zone of inhibition at 30 µg/disc ([2]; strain 24): < 6 mm | zone of inhibition at 5 µg/disc ([2]; strain 26): < 6 mm | zone of inhibition at 30 µg/disc ([2]; strain 26): < 6 mm | zone of inhibition at 5 µg/disc ([2]; strain 27): < 6 mm | zone of inhibition at 30 µg/disc ([2]; strain 27): 10 to 19 mm | zone of inhibition at 5 µg/disc ([2]; strain 28): < 6 mm | zone of inhibition at 30 µg/disc ([2]; strain 28): 10 to 19 mm | zone of inhibition at 5 µg/disc ([2]; strain 29): 10 to 19 mm | zone of inhibition at 30 µg/disc ([2]; strain 29): 20 to 29 mm | zone of inhibition at 5 µg/disc ([2]; strain 30): 10 to 19 mm | zone of inhibition at 30 µg/disc ([2]; strain 30): 10 to 19 mm
